Test results taken from patent US10941157B2, “Pesticidal compositions and uses thereof” (Gilead Apollo, LLC, priority 2015, dated 2021).
≈ marks a conversion by molar mass, not a printed value.

What was measured:
Type in all cases: cell-based
[1] = tested on: Botrtyis cinerea (Bc); experiment: In vitro pathogen growth inhibition assay, Bc; settings: 48 h, ≥90% inhibition; 48 hours vs 2% DMSO control; read-out: Compound Concentration (ppm) sufficient for ≥90% inhibition of growth, Bc
Outline: (§1)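 Value reported is the compound concentration reaching ≥90% growth inhibition, from OD readings at 24 and 48 h after blank subtraction, confirmed visually. Inoculum was spores diluted in 17% V8 medium, except Rs, using 1.5 mm mycelial plugs in ¼ PDB; actual compound concentration corrected via OD600.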

[2] = tested on: Collectotrichum graminicola (Cg); experiment: In vitro pathogen growth inhibition assay, Cg; settings: 48 h, ≥90% inhibition; 48 hours vs 2% DMSO control; read-out: Compound Concentration (ppm) sufficient for ≥90% inhibition of growth, Cg
Outline: as §1

[3] = tested on: Diplodia maydis (Dm); experiment: In vitro pathogen growth inhibition assay, Dm; settings: Stenocarpella maydis, 48 h, ≥90% inhibition; 48 hours vs 2% DMSO control; read-out: Compound Concentration (ppm) sufficient for ≥90% inhibition of growth, Dm
Outline: (§2)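 Spores in 17% V8 liquid medium, or 1.5 mm Rs mycelial plugs in ¼ PDB, incubated with compound; final concentration checked by OD600 for precipitation. OD readings at 24 and 48 h, blank-subtracted, plus visual ratings; value is concentration giving ≥90% growth inhibition.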

[4] = tested on: Fusarium moniliforme (Fm); experiment: In vitro pathogen growth inhibition assay, Fm; settings: Fusarium verticillioides; ≥90% inhibition; 48 hours vs 2% DMSO control; read-out: Compound Concentration (ppm) sufficient for ≥90% inhibition of growth, Fm
Outline: as §1

[5] = tested on: Fusarium virguliforme (Fv); experiment: In vitro pathogen growth inhibition assay, Fv; settings: ≥90% inhibition, 48 hours vs 2% DMSO control, read-out: Compound Concentration (ppm) sufficient for ≥90% inhibition of growth, Fv
Outline: as §2

[6] = tested on: Phytophthora capsici (Pc); experiment: In vitro pathogen growth inhibition assay, Pc; settings: 48 h, ≥90% inhibition, 48 hours vs 2% DMSO control, read-out: Compound Concentration (ppm) sufficient for ≥90% inhibition of growth, Pc
Outline: as §2

[7] = tested on: Rhizoctonia solani (Rs); experiment: In vitro pathogen growth inhibition assay, Rs (mycelial plugs); settings: Rhizoctonia solani, 48 h, ≥90% inhibition; mycelial plugs; 48 hours vs 2% DMSO control; read-out: Compound Concentration (ppm) sufficient for ≥90% inhibition of growth, Rs
Outline: as §2

[8] = tested on: Septoria tritici (St); experiment: In vitro pathogen growth inhibition assay, St; settings: Zymoseptoria tritici, 48 h, ≥90% inhibition; 48 hours vs 2% DMSO control; read-out: Compound Concentration (ppm) sufficient for ≥90% inhibition of growth, St
Outline: as §1

[9] = tested on: Saccharomyces cerevisiae (Sc); experiment: Yeast growth inhibition assay; settings: Saccharomyces cerevisiae, ≥75% inhibition, read-out: Compound Concentration (ppm) sufficient for ≥75% inhibition, Sc
Experimental: Both tables list the concentration of each compound that was sufficient to ≥90% inhibition of growth for each of the fungal pathogens listed above. In addition, some of compounds were tested in a yeast growth inhibition assay for Saccharomyces cerevisiae (Sc). Table 2 lists the concentration of the tested compound that was sufficient to ≥75% inhibition of Saccharomyces cerevisiae (Sc).

| Structure (SMILES) | IC90 [1] | IC90 [2] | IC90 [3] | IC90 [4] | IC90 [5] | IC90 [6] | IC90 [7] | IC90 [8] | IC75 [9] |
| --- | --- | --- | --- | --- | --- | --- | --- | --- | --- |
| COc1ccccc1[C@H](Cn1c(=O)n(C(C)(C)C(=O)NC(C)C)c(=O)c2c(C)c(-c3ncco3)sc21)OC(C)C [Compound I-001] | ≥ 0.4 µg/mL | ≥ 2 µg/mL | 2 µg/mL (≈ 3.52 µM) | 0.08 µg/mL (≈ 0.141 µM) | 0.4 µg/mL (≈ 0.703 µM) | > 50 µg/mL | 50 µg/mL (≈ 87.9 µM) | > 10 µg/mL | 1.2 µg/mL (≈ 2.11 µM) |
| COc1ccccc1[C@H](Cn1c(=O)n(C(C)(C)C(=O)N2CCCCC2)c(=O)c2c(C)c(-c3ncco3)sc21)OC1CCOCC1 [Compound I-004] | 0.4 µg/mL (≈ 0.628 µM) | 2 µg/mL (≈ 3.14 µM) | 2 µg/mL (≈ 3.14 µM) | 0.08 µg/mL (≈ 0.126 µM) | 2 µg/mL (≈ 3.14 µM) | > 50 µg/mL | 10 µg/mL (≈ 15.7 µM) | > 10 µg/mL | 3.7 µg/mL (≈ 5.81 µM) |
| COc1ccccc1[C@H](Cn1c(=O)n(C(C)(C)C(=O)N2CCCC2)c(=O)c2c(C)c(-c3ncco3)sc21)OC1CCOCC1 [Compound I-005] | 2 µg/mL (≈ 3.21 µM) | 2 µg/mL (≈ 3.21 µM) | 2 µg/mL (≈ 3.21 µM) | 0.08 µg/mL (≈ 0.128 µM) | 2 µg/mL (≈ 3.21 µM) | > 50 µg/mL | 0.4 µg/mL (≈ 0.642 µM) | > 10 µg/mL | 0.4 µg/mL (≈ 0.642 µM) |
| CCOC(=O)c1sc2c(c1C)c(=O)n(C(C)(C)C(=O)N1CCCCC1)c(=O)n2C[C@H](OC(C)C)c1ccccc1OC [Compound I-006] | 0.4 µg/mL (≈ 0.667 µM) | 0.4 µg/mL (≈ 0.667 µM) | 0.4 µg/mL (≈ 0.667 µM) | 0.08 µg/mL (≈ 0.133 µM) | 0.4 µg/mL (≈ 0.667 µM) | > 50 µg/mL | 0.4 µg/mL (≈ 0.667 µM) | ≥ 2 µg/mL | 1.2 µg/mL (≈ 2 µM) |
| CCOC(=O)c1sc2c(c1C)c(=O)n(C(C)(C)C(=O)N1CCCC1)c(=O)n2C[C@H](OC(C)C)c1ccccc1OC [Compound I-007] | 0.4 µg/mL (≈ 0.683 µM) | 0.4 µg/mL (≈ 0.683 µM) | 0.4 µg/mL (≈ 0.683 µM) | 0.08 µg/mL (≈ 0.137 µM) | 0.4 µg/mL (≈ 0.683 µM) | > 50 µg/mL | 0.08 µg/mL (≈ 0.137 µM) | ≥ 2 µg/mL | 0.4 µg/mL (≈ 0.683 µM) |
| CCOC(=O)c1sc2c(c1C)c(=O)n(C(C)(C)C(=O)NC(C)C)c(=O)n2C[C@H](OC1CCOCC1)c1ccccc1OC [Compound I-008] | 0.4 µg/mL (≈ 0.65 µM) | 2 µg/mL (≈ 3.25 µM) | 2 µg/mL (≈ 3.25 µM) | 0.08 µg/mL (≈ 0.13 µM) | 2 µg/mL (≈ 3.25 µM) | > 50 µg/mL | 10 µg/mL (≈ 16.2 µM) | > 10 µg/mL | 3.7 µg/mL (≈ 6.01 µM) |
| CCOC(=O)c1sc2c(c1C)c(=O)n(C(C)(C)C(=O)NC(C)C)c(=O)n2C[C@H](OC(C)C)c1ccccc1OC [Compound I-009] | 0.4 µg/mL (≈ 0.697 µM) | 2 µg/mL (≈ 3.49 µM) | 0.4 µg/mL (≈ 0.697 µM) | 0.08 µg/mL (≈ 0.139 µM) | 0.4 µg/mL (≈ 0.697 µM) | > 50 µg/mL | 10 µg/mL (≈ 17.4 µM) | > 50 µg/mL | 3.7 µg/mL (≈ 6.45 µM) |
| CCNC(=O)C(C)(C)n1c(=O)c2c(C)c(-c3ncco3)sc2n(C[C@H](O[C@H]2CC[C@@H](O)CC2)c2ccccc2OC)c1=O [Compound I-010] | 0.4 µg/mL (≈ 0.655 µM) | 50 µg/mL (≈ 81.9 µM) | ≥ 2 µg/mL | 0.08 µg/mL (≈ 0.131 µM) | 2 µg/mL (≈ 3.27 µM) | > 50 µg/mL | 50 µg/mL (≈ 81.9 µM) | > 50 µg/mL | 0.4 µg/mL (≈ 0.655 µM) |
| COc1ccccc1[C@H](Cn1c(=O)n(C(C)(C)C(=O)NC(C)C)c(=O)c2c(C)c(-c3ncco3)sc21)OC1CCOCC1 [Compound I-011] | 0.4 µg/mL (≈ 0.655 µM) | 2 µg/mL (≈ 3.27 µM) | 2 µg/mL (≈ 3.27 µM) | 0.08 µg/mL (≈ 0.131 µM) | 2 µg/mL (≈ 3.27 µM) | > 50 µg/mL | 10 µg/mL (≈ 16.4 µM) | 50 µg/mL (≈ 81.9 µM) | 1.2 µg/mL (≈ 1.96 µM) |
| COc1ccccc1[C@H](Cn1c(=O)n(C(C)(C)C(=O)NC(C)C)c(=O)c2c(C)c(-c3ncco3)sc21)O[C@H]1CC[C@@H](O)CC1 [Compound I-012] | 0.4 µg/mL (≈ 0.64 µM) | 10 µg/mL (≈ 16 µM) | 2 µg/mL (≈ 3.2 µM) | 0.08 µg/mL (≈ 0.128 µM) | 2 µg/mL (≈ 3.2 µM) | > 50 µg/mL | 50 µg/mL (≈ 80 µM) | ≥ 10 µg/mL | 0.14 µg/mL (≈ 0.224 µM) |
| COc1ccccc1[C@H](Cn1c(=O)n(C(C)(C)C(=O)NC(C)C)c(=O)c2c(C)c(-c3ncco3)sc21)OC1CCC(=O)CC1 [Compound I-013] | 0.4 µg/mL (≈ 0.642 µM) | 10 µg/mL (≈ 16.1 µM) | 0.4 µg/mL (≈ 0.642 µM) | 0.08 µg/mL (≈ 0.128 µM) | 2 µg/mL (≈ 3.21 µM) | > 50 µg/mL | 10 µg/mL (≈ 16.1 µM) | ≥ 10 µg/mL | 0.14 µg/mL (≈ 0.225 µM) |
| COc1ccccc1[C@H](Cn1c(=O)n(C(C)(C)C(=O)NC2CCC2)c(=O)c2c(C)c(-c3ncco3)sc21)OC(C)C [Compound I-098] | 2 µg/mL (≈ 3.44 µM) | 10 µg/mL (≈ 17.2 µM) | 2 µg/mL (≈ 3.44 µM) | 0.4 µg/mL (≈ 0.689 µM) | 10 µg/mL (≈ 17.2 µM) | > 50 µg/mL | 10 µg/mL (≈ 17.2 µM) | > 50 µg/mL | 11 µg/mL (≈ 18.9 µM) |
| COc1ccccc1[C@H](Cn1c(=O)n(C(C)(C)C(=O)NC2CCC2)c(=O)c2c(C)c(-c3ncco3)sc21)OC1CCOCC1 [Compound I-099] | 10 µg/mL (≈ 16.1 µM) | 50 µg/mL (≈ 80.3 µM) | 10 µg/mL (≈ 16.1 µM) | 0.4 µg/mL (≈ 0.642 µM) | 50 µg/mL (≈ 80.3 µM) | > 50 µg/mL | 50 µg/mL (≈ 80.3 µM) | > 50 µg/mL | 33 µg/mL (≈ 53 µM) |
| COc1ccccc1[C@H](Cn1c(=O)n(C(C)(C)C(N)=O)c(=O)c2c(C)c(-c3ncco3)sc21)O[C@H]1CC[C@@H](O)CC1 [Compound I-100] | 2 µg/mL (≈ 3.43 µM) | 50 µg/mL (≈ 85.8 µM) | 2 µg/mL (≈ 3.43 µM) | 0.4 µg/mL (≈ 0.686 µM) | 10 µg/mL (≈ 17.2 µM) | > 50 µg/mL | 50 µg/mL (≈ 85.8 µM) | ≥ 50 µg/mL | 1.2 µg/mL (≈ 2.06 µM) |
| COc1ccc(F)cc1[C@H](Cn1c(=O)n(C(C)(C)C(N)=O)c(=O)c2c(C)c(-c3ncco3)sc21)OC1CCOCC1 [Compound I-101] | 10 µg/mL (≈ 17 µM) | 10 µg/mL (≈ 17 µM) | 10 µg/mL (≈ 17 µM) | 0.4 µg/mL (≈ 0.682 µM) | 10 µg/mL (≈ 17 µM) | 50 µg/mL (≈ 85.2 µM) | 50 µg/mL (≈ 85.2 µM) | > 50 µg/mL | 3.7 µg/mL (≈ 6.31 µM) |
| COc1ccc(F)cc1[C@H](Cn1c(=O)n(C(C)(C)C(N)=O)c(=O)c2c(C)c(-n3nccn3)sc21)OC1CCOCC1 [Compound I-102] | 2 µg/mL (≈ 3.41 µM) | 2 µg/mL (≈ 3.41 µM) | 2 µg/mL (≈ 3.41 µM) | 0.4 µg/mL (≈ 0.682 µM) | 2 µg/mL (≈ 3.41 µM) | 10 µg/mL (≈ 17 µM) | ≥ 2 µg/mL | ≥ 50 µg/mL | 1.2 µg/mL (≈ 2.05 µM) |
| COc1ccc(F)cc1[C@H](Cn1c(=O)n(C(C)(C)C(N)=O)c(=O)c2c(C)c(-c3ncco3)sc21)O[C@H]1CC[C@@H](O)CC1 [Compound I-103] | 2 µg/mL (≈ 3.33 µM) | 50 µg/mL (≈ 83.2 µM) | 10 µg/mL (≈ 16.6 µM) | 0.4 µg/mL (≈ 0.666 µM) | 2 µg/mL (≈ 3.33 µM) | > 50 µg/mL | 50 µg/mL (≈ 83.2 µM) | > 10 µg/mL | 1.2 µg/mL (≈ 2 µM) |
